Reference: patent publication US20150073050A1 (Amarin Pharmaceuticals Ireland Limited, priority 2013, published 2015)

Experiment: Safety evaluation in the drug-drug interaction study (adverse events, clinical laboratory, vital signs, physical examination)
Type: in vivo, human
Details: omeprazole 40 mg with ethyl eicosapentaenoate 4 g/day, healthy subjects
Description: Safety evaluations consisted of monitoring adverse events (AEs), clinical laboratory measurements (chemistry, hematology, and urinalysis), vital signs (systolic and diastolic blood pressure, heart rate, respiratory rate and oral body temperature), and physical examination findings.

| SMILES | Premature discontinuation due to an adverse event | Safety and tolerability of concomitant administration | Serious adverse events |
| --- | --- | --- | --- |
| COc1ccc2[nH]c([S+]([O-])Cc3ncc(C)c(OC)c3C)nc2c1 (stereo not drawn) [Omeprazole, omeprazole] | no subjects prematurely discontinued | safe and well-tolerated | No serious adverse events |
| CC/C=C\C/C=C\C/C=C\C/C=C\C/C=C\CCCC(=O)OCC [ethyl eicosapentaenoate, all-cis eicosa-5,8,11,14,17-pentaenoic acid ethyl ester] | no subjects prematurely discontinued | safe and well-tolerated | No serious adverse events |
